Results from US8399465B2, “Compounds with two fused bicyclic heteroaryl moieties as modulators of leukotriene A4 hydrolase” (Janssen Pharmaceutica NV, priority 2009, dated 2013).
Counter-ions that a name gives are not always drawn.

Each compound was assayed against T1, recombinant human LTA4 hydrolase (rhLTA4H) (Homo sapiens, UniProt P09960) (assay: Recombinant human LTA4 hydrolase assay for LTA4 hydrolase inhibitor activity). Conditions: not given.
T1 construct: made in house; host or cells: Spodoptera frugiperda (Sf-9) cells, baculovirus (pFastBac1)
T1 sequence (P09960 1-611): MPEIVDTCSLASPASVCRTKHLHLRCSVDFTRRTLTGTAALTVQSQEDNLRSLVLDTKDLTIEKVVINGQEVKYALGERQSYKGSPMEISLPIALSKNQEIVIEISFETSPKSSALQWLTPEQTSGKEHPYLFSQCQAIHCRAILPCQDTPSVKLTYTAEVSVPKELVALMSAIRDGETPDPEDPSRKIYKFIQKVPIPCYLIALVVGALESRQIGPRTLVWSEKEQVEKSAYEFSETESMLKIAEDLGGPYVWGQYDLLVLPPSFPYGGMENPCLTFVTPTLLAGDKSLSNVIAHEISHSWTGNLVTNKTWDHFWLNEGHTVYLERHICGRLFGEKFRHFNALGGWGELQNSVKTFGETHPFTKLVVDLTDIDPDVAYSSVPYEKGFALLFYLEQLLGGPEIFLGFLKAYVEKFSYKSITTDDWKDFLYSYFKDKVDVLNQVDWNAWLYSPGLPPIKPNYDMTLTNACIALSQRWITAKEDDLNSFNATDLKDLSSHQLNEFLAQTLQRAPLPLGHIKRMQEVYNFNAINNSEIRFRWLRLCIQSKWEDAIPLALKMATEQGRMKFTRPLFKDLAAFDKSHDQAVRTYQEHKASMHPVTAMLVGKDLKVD
Type: biochemical
Procedure: Assay 1: Recombinant Human LTA4 Hydrolase Assay for LTA4 Hydrolase Inhibitor Activity
Compounds of the present invention were tested for LTA4 hydrolase inhibitor activity against recombinant human LTA4 hydrolase (rhLTA4H). Vectors were prepared and used to express rhLTA4H essentially as follows: LTA4 hydrolase encoding DNA was amplified by polymerase chain reaction (PCR) using a human placental cDNA library as a template. […] The amplified 1.9 kb DNA fragment encoding LTA4 hydrolase was isolated and cloned into the pFastBac1 vector (Invitrogen). Recombinant baculovirus was generated as described by the manufacturer, and used to infect Spodoptera frugiperda (Sf-9) cells. […] The purified enzyme solution was adjusted to contain 0.29 mg/mL LTA4 hydrolase, 50 mM Tris (pH 8.0), 150 mM NaCl, 5 mM dithiothreitol, 50% glycerol, and EDTA-free Complete protease inhibitor cocktail (Roche).
LTA4 substrate was prepared from the methyl ester of LTA4 (Cayman Chemical) by treatment with 67 equiv of NaOH under nitrogen at rt for 40 min. The LTA4 substrate in its free acid form was kept frozen at −80° C. until needed. Each compound was diluted to different concentrations in assay buffer (from Assay Designs) containing 10% DMSO. A 25-μL aliquot of each compound dilution was incubated for 10 min at rt with an equal volume of assay buffer containing 10 ng of recombinant human LTA4H. The solution was then adjusted to 200 μL with assay buffer. […] Each reaction was carried out at rt for 30 min. The reaction was stopped by diluting 10 μL of the reaction mixture with 200 μL of assay buffer. LTB4 was quantified in the diluted sample by a commercially available enzyme-linked immunoassay (Cayman Chemical Co.), as recommended by the manufacturer. Positive controls, under essentially identical conditions but without addition of an inhibitor compound, and negative controls, containing all assay components except enzyme, were routinely run in each experiment. IC50 values were determined by nonlinear regression of the activity data at different compound concentrations using Graphpad Prism 4.0, one site binding competition.
The values presented here are the result of a single determination or an average of two or more determinations. Compounds that were not tested are indicated as such by a “NT” designation.

Row | Structure (SMILES) | IC50
1 | CC(=O)N1C[C@@H]2C[C@H]1CN2Cc1cc2cc(Oc3nc4cnccc4s3)ccc2o1 [Example 199, (1S,4S)-1-{5-[5-(Thiazolo[4,5-c]pyridin-2-yloxy)-benzofuran-2-ylmethyl]-2,5-diaza-bicyclo[2.2.1]hept-2-yl}-ethanone formate] | 338 nM

Same assay, conditions: rhLTA4H, LTB4 by immunoassay; single determination or average of two or more; mark after value = form tested: ′ free base, ″ hydrochloride, ^ formate; read-out: IC50

Row | IC50 | Structure (SMILES)
2 | 169 nM | NC(=O)C1CCN(Cc2cc3ccc(Oc4nc5ncccc5s4)cc3s2)CC1 [Example 138, 1-[6-(Thiazolo[4,5-b]pyridin-2-yloxy)-benzo[b]thiophen-2-ylmethyl]-piperidine-4-carboxylic acid amide]
3 | 52 nM | O=C(O)c1ccc(C(=O)NCc2coc3cc(Oc4nc5ncccc5s4)ccc23)cc1 [Example 396, N-[6-(Thiazolo[4,5-b]pyridin-2-yloxy)-benzofuran-3-ylmethyl]-terephthalamic acid]
4 | 286 nM | CC(=O)N1CCCC2(CCN(Cc3cc4cc(Oc5nc6ncccc6s5)ccc4o3)C2)C1 (stereo not shown) [Example 166, 1-{2-[5-(Thiazolo[4,5-b]pyridin-2-yloxy)-benzofuran-2-ylmethyl]-2,7-diaza-spiro[4.5]dec-7-yl}-ethanone]
5 | 270 nM | NC(=O)N1C[C@@H]2C[C@H]1CN2Cc1cc2ncc(Oc3nc4ncccc4s3)cc2o1 [Example 337, (1S,4S)-5-[6-(Thiazolo[4,5-b]pyridin-2-yloxy)-furo[3,2-b]pyridin-2-ylmethyl]-2,5-diaza-bicyclo[2.2.1]heptane-2-carboxylic acid amide formate]
6 | 100 nM | COC(=O)c1ccc(C(=O)NCc2coc3cc(Oc4nc5ncccc5s4)ccc23)cc1 [Example 393, N-[6-(Thiazolo[4,5-b]pyridin-2-yloxy)-benzofuran-3-ylmethyl]-terephthalamic acid methyl ester]
7 | < 1 nM | CC(=O)N1CCC2(CCN(Cc3coc4cc(Oc5nc6ncccc6s5)ccc34)CC2)C1 [Example 265, 1-{8-[6-(Thiazolo[4,5-b]pyridin-2-yloxy)-benzofuran-3-ylmethyl]-2,8-diaza-spiro[4.5]dec-2-yl}-ethanone]
8 | 85 nM | O=C(Cc1ccc(Cl)cc1)NCc1coc2cc(Oc3nc4ncccc4s3)ccc12 [Example 394, 2-(4-Chloro-phenyl)-N-[6-(thiazolo[4,5-b]pyridin-2-yloxy)-benzofuran-3-ylmethyl]-acetamide]
9 | 365 nM | CC(=O)N1C[C@@H]2C[C@H]1CN2Cc1coc2cc(Oc3nc4cnccc4s3)ccc12 [Example 222, (1S,4S)-1-{5-[6-(Thiazolo[4,5-c]pyridin-2-yloxy)-benzofuran-3-ylmethyl]-2,5-diaza-bicyclo[2.2.1]hept-2-yl}-ethanone]
10 | 467 nM | CC(=O)NC1CCN(Cc2coc3cc(Oc4nc5nc(C)ccc5s4)ccc23)CC1 [Example 250, N-{1-[6-(5-Methyl-thiazolo[4,5-b]pyridin-2-yloxy)-benzofuran-3-ylmethyl]-piperidin-4-yl}-acetamide formate]
11 | 327 nM | c1cnc2nc(Oc3ccc4cc(CN5CCOCC5)oc4c3)sc2c1 [Example 115, 2-(2-Morpholin-4-ylmethyl-benzofuran-6-yloxy)-thiazolo[4,5-b]pyridine]
12 | 110 nM | CN(Cc1ccccc1)C(=O)c1cc2cc(Oc3nc4ncccc4s3)ccc2o1 [Example 365, 5-(Thiazolo[4,5-b]pyridin-2-yloxy)-benzofuran-2-carboxylic acid benzyl-methyl-amide]
13 | 250 nM | CC(=O)N1C[C@@H]2C[C@H]1CN2Cc1cc2ncc(Oc3nc4ncccc4s3)cc2o1 [Example 274, (1S,4S)-1-{5-[6-(Thiazolo[4,5-b]pyridin-2-yloxy)-furo[3,2-b]pyridin-2-ylmethyl]-2,5-diaza-bicyclo[2.2.1]hept-2-yl}-ethanone formate]
14 | 720 nM | c1ccc2sc(Oc3ccc4cc(CN5CCCCC5)sc4c3)nc2c1 [Example 132, 2-(2-Piperidin-1-ylmethyl-benzo[b]thiophen-6-yloxy)-benzothiazole]
15 | 250 nM | CC(=O)N1CCN(Cc2cc3ncc(Oc4nc5ncccc5s4)cc3o2)CC1 [Example 343, 1-{4-[6-(Thiazolo[4,5-b]pyridin-2-yloxy)-furo[3,2-b]pyridin-2-ylmethyl]-piperazin-1-yl}-ethanone formate]
16 | 145 nM | O=C1CCCN1C1CCN(Cc2cc3ccc(Oc4nc5ncccc5s4)cc3o2)CC1 [Example 108, 1-{1-[6-(Thiazolo[4,5-b]pyridin-2-yloxy)-benzofuran-2-ylmethyl]-piperidin-4-yl}-pyrrolidin-2-one formate]
17 | 160 nM | CC(=O)NC1CCN(Cc2cc3ncc(Oc4nc5ncccc5s4)cc3o2)CC1 [Example 273, N-{1-[6-(Thiazolo[4,5-b]pyridin-2-yloxy)-furo[3,2-b]pyridin-2-ylmethyl]-piperidin-4-yl}-acetamide formate]
18 | 186 nM | c1cnc2nc(Oc3ccc4cc(CN5C[C@@H]6C[C@H]5CO6)oc4c3)sc2c1 [Example 109, (1S,4S)-2-[2-(2-Oxa-5-aza-bicyclo[2.2.1]hept-5-ylmethyl)-benzofuran-6-yloxy]-thiazolo[4,5-b]pyridine formate]
19 | 473 nM | c1ccc2sc(Oc3ccc4cc(CN5CCOCC5)sc4c3)nc2c1 [Example 133, (2-Morpholin-4-ylmethyl-benzo[b]thiophen-6-yloxy)-benzothiazole]
20 | 1120 nM | O=C1Cc2cc(C(F)(F)F)ccc2N1Cc1coc2cc(Oc3nc4ncccc4s3)ccc12 [Example 400, 1-[6-(Thiazolo[4,5-b]pyridin-2-yloxy)-benzofuran-3-ylmethyl]-5-trifluoromethyl-1,3-dihydro-indol-2-one]
21 | 107 nM | FC(F)(F)C1CCN(Cc2coc3cc(Oc4nc5ncccc5s4)ccc23)CC1 [Example 163, 2-[3-(4-Trifluoromethyl-piperidin-1-ylmethyl)-benzofuran-6-yloxy]-thiazolo[4,5-b]pyridine]
22 | 84 nM | CS(=O)(=O)NC1CCN(Cc2cc3ccc(Oc4nc5ncccc5s4)cc3o2)C1 (stereo not shown) [Example 128, N-(1-{[6-([1,3]thiazolo[4,5-b]pyridin-2-yloxy)-1-benzofuran-2-yl]methyl}pyrrolidin-3-yl)methanesulfonamide formate]
23 | 40 nM | c1cnc(N2CCN(Cc3coc4cc(Oc5nc6ncccc6s5)ccc34)CC2)nc1 [Example 292, 2-[3-(4-Pyrimidin-2-yl-piperazin-1-ylmethyl)-benzofuran-6-yloxy]-thiazolo[4,5-b]pyridine formate]
24 | 610 nM | Cn1cc(CN2CCOCC2)c2ccc(Oc3nc4ccccc4s3)cc21 [Example 61, 2-(1-Methyl-3-morpholin-4-ylmethyl-1H-indol-6-yloxy)-benzothiazole]

Row | Structure (SMILES) | IC50
25 | NC(=O)C1CCN(CCc2c[nH]c3ccc(Oc4nc5ccccc5s4)cc23)CC1 [Example 75, 1-{2-[5-(Benzothiazol-2-yloxy)-1H-indol-3-yl]-ethyl}-piperidine-4-carboxylic acid amide] | 714 nM
26 | CC(=O)N(CC(=O)O)[C@H]1C[C@H]2CC[C@@H](C1)N2Cc1c[nH]c2cc(Oc3nc4ccccc4s3)ccc12 [Example 48, meso-endo-(Acetyl-{8-[6-(benzothiazol-2-yloxy)-1H-indol-3-ylmethyl]-8-aza-bicyclo[3.2.1]oct-3-yl}-amino)-acetic acid] | 679 nM
27 | CC(=O)N[C@H]1C[C@H]2CC[C@@H](C1)N2Cc1cc2ccc(Oc3nc4cnccc4s3)cc2o1 [Example 201, meso-endo-N-{8-[6-(Thiazolo[4,5-c]pyridin-2-yloxy)-benzofuran-2-ylmethyl]-8-aza-bicyclo[3.2.1]oct-3-yl}-acetamide] | 236 nM
28 | CC(=O)N[C@H]1C[C@H]2CC[C@@H](C1)N2Cc1cc2cc(Oc3nc4cnccc4s3)ccc2o1 [Example 200, meso-endo-N-{8-[5-(Thiazolo[4,5-c]pyridin-2-yloxy)-benzofuran-2-ylmethyl]-8-aza-bicyclo[3.2.1]oct-3-yl}-acetamide formate] | 1130 nM
